According to US9700047B2, “Macrocyclic picolinamides as fungicides” (Dow AgroSciences LLC, priority 2014, dated 2017):
Read-outs that look alike come from different tables or passages of the source.

Assays:
[1] = system: Puccinia triticina; Synonym: Puccinia recondita f sp. tritici; test: Wheat brown rust (PUCCRT) disease control on wheat seedlings; format: in vivo; details: for pest or weed control at 121.5 g/ha: Low Volume activity at 121.5 g/H; for pest or weed control at 100 ppm: High Volume activity at 100 ppm
Procedure: All fungicides were evaluated using the aforementioned method for their activity vs. all target diseases, unless stated otherwise. Wheat leaf blotch and brown rust activity were also evaluated using track spray applications, in which case the fungicides were formulated as EC formulations, containing 0.1% Trycol 5941 in the spray solutions. Wheat plants (variety Yuma) were grown from seed in a greenhouse in 50% mineral soil/50% soil-less Metro mix until the first leaf was fully emerged, with 7-10 seedlings per pot. These plants were inoculated with an aqueous spore suspension of Puccinia triticina either prior to or after fungicide treatments. […] The plants were then transferred to a greenhouse set at 24° C. for disease to develop. Fungicide formulation, application and disease assessment followed the procedures as described in the Example A.

Rhyncosporium secalis = test: Barley scald (RHYNSE) disease control on barley seedlings; format: in vivo; details: 100 ppm; 1 Day Protectant
Procedure: All fungicides were evaluated using the aforementioned method for their activity vs. all target diseases, unless stated otherwise. Wheat leaf blotch and brown rust activity were also evaluated using track spray applications, in which case the fungicides were formulated as EC formulations, containing 0.1% Trycol 5941 in the spray solutions. Barley seedlings (variety Harrington) were propagated in soil-less Metro mix, with each pot having 8 to 12 plants, and used in the test when first leaf was fully emerged. Test plants were inoculated by an aqueous spore suspension of Rhyncosporium secalis 24 hr after fungicide treatments. After inoculation the plants were kept in a dew room at 20° C. with 100% relative humidity for 48 hr. The plants were then transferred to a greenhouse set at 20° C. for disease to develop. Fungicide formulation, application and disease assessment on the sprayed leaves followed the procedures as described in the Example A.

[2] = 24 h, 1 Day Protectant, read-out: PUCCRT 1DP % Control rating
[3] = 72 h, 3 Day Curative, read-out: PUCCRT 3DC % Control rating

| Compound | pest or weed control at 121.5 g/ha [1, 2] [%] | pest or weed control at 121.5 g/ha [1, 3] [%] | RHYNSE 1DP Disease Control rating (Rhyncosporium secalis) | pest or weed control at 100 ppm [1, 2] [%] | pest or weed control at 100 ppm [1, 3] [%] |
| --- | --- | --- | --- | --- | --- |
| CCCC[C@@H]1[C@@H](Cc2ccc(C(F)(F)F)cc2)CCC[C@H](NC(=O)c2nccc(OC)c2OCOC(C)=O)C(=O)O[C@H]1C [Compound 3] | > 70 | < 70 | B (≦70) |  |  |
| COc1ccnc(C(=O)N[C@H]2CCC[C@H](CCCc3ccccc3)[C@@H](CCc3ccccc3)[C@H](C)OC2=O)c1O [Compound 85] |  |  |  | > 70 | < 70 |
| COc1ccnc(C(=O)N[C@H]2CCC[C@H](Cc3ccc(C(F)(F)F)cc3)[C@@H](Cc3ccc(F)cc3)[C@H](C)OC2=O)c1O [Compound 86] |  |  |  | > 70 | < 70 |
| COc1ccnc(C(=O)N[C@H]2CCC[C@H](CCC(C)C)[C@@H](C3CCCC3)[C@H](C)OC2=O)c1O [Compound 87] |  |  |  | > 70 | < 70 |
| COc1ccnc(C(=O)N[C@H]2CCC[C@H](Cc3ccccc3)[C@@H](CCC(C)C)[C@H](C)OC2=O)c1O [Compound 88] |  |  |  | > 70 | < 70 |
| COc1ccnc(C(=O)N[C@H]2CCC[C@H](Cc3ccccc3)[C@@H](c3ccccc3)[C@H](C)OC2=O)c1O [Compound 90] |  |  |  | > 70 | > 70 |
| CCC[C@H]1CCC[C@H](NC(=O)c2nccc(OC)c2O)C(=O)O[C@@H](C)[C@@H]1c1ccccc1 [Compound 91] |  |  |  | > 70 | < 70 |
| COc1ccnc(C(=O)N[C@H]2CCC[C@H](CCCc3ccccc3)[C@@H](CC(C)C)[C@H](C)OC2=O)c1O [Compound 92] |  |  |  | > 70 | < 70 |
| COc1ccnc(C(=O)N[C@H]2CCC[C@H](CCCc3ccccc3)[C@@H](Cc3ccc(OC(F)(F)F)cc3)[C@H](C)OC2=O)c1O [Compound 93] |  |  |  | < 70 | < 70 |
| COc1ccnc(C(=O)N[C@H]2CCC[C@H](CC3CC3)[C@@H](Cc3ccccc3)[C@H](C)OC2=O)c1O [Compound 94] | > 70 | < 70 |  |  |  |
| COc1ccnc(C(=O)N[C@H]2CCC[C@H](Cc3ccccc3)[C@@H](Cc3ccc(F)cc3)[C@H](C)OC2=O)c1O [Compound 95] | > 70 | < 70 |  |  |  |
| COc1ccnc(C(=O)N[C@H]2CCC[C@H](Cc3ccc(C(F)(F)F)cc3)[C@@H](Cc3ccc(OC(F)(F)F)cc3)[C@H](C)OC2=O)c1O [Compound 96] |  |  |  | < 70 | < 70 |
| COc1ccnc(C(=O)N[C@H]2CCC[C@H](Cc3ccccc3)[C@@H](Cc3ccc(OC(F)(F)F)cc3)[C@H](C)OC2=O)c1O [Compound 97] |  |  |  | > 70 | < 70 |
| COc1ccnc(C(=O)N[C@H]2CCC[C@H](CCCc3ccccc3)[C@@H](Cc3ccccc3)[C@H](C)OC2=O)c1O [Compound 98] |  |  |  | > 70 | < 70 |
